Legend:
[1] = target: Misshapen-like kinase 1 (Homo sapiens) (UniProt Q8N4C8); conditions: Compound concentration 1000.0 nM
[2] = target: Tyrosine-protein kinase ITK/TSK (Homo sapiens) (UniProt Q08881); conditions: Compound concentration 1000.0 nM
[3] = target: Tyrosine-protein kinase TXK (Homo sapiens) (UniProt P42681); conditions: Compound concentration 1000.0 nM
[4] = target: Mast/stem cell growth factor receptor Kit (Homo sapiens) (UniProt P10721); conditions: Compound concentration 1000.0 nM
[5] = target: Serine/threonine-protein kinase mTOR (Homo sapiens) (UniProt P42345); conditions: Compound concentration 1000.0 nM
[6] = target: Serine/threonine-protein kinase Sgk1 (Homo sapiens) (UniProt O00141); conditions: Compound concentration 1000.0 nM
[7] = target: Casein kinase I isoform alpha-like (Homo sapiens) (UniProt Q8N752); conditions: Compound concentration 1000.0 nM
[8] = target: Serine/threonine-protein kinase Nek1 (Homo sapiens) (UniProt Q96PY6); conditions: Compound concentration 1000.0 nM
[9] = target: Serine/threonine-protein kinase MRCK alpha (Homo sapiens) (UniProt Q5VT25); conditions: Compound concentration 1000.0 nM
[10] = target: Serine/threonine-protein kinase PAK 3 (Homo sapiens) (UniProt O75914); conditions: Compound concentration 1000.0 nM
[11] = target: Dual specificity mitogen-activated protein kinase kinase 4 (Homo sapiens) (UniProt P45985); conditions: Compound concentration 1000.0 nM
[12] = target: Ribosomal protein S6 kinase alpha-1 (Homo sapiens) (UniProt Q15418); conditions: Compound concentration 1000.0 nM
[13] = target: Mitotic checkpoint serine/threonine-protein kinase BUB1 (Homo sapiens) (UniProt O43683); conditions: Compound concentration 1000.0 nM
[14] = target: Serine/threonine-protein kinase Sgk3 (Homo sapiens) (UniProt Q96BR1); conditions: Compound concentration 1000.0 nM
[15] = target: Interleukin-1 receptor-associated kinase 3 (Homo sapiens) (UniProt Q9Y616); conditions: Compound concentration 1000.0 nM
[16] = target: Mitogen-activated protein kinase kinase kinase kinase 3 (Homo sapiens) (UniProt Q8IVH8); conditions: Compound concentration 1000.0 nM
[17] = target: Mu-type opioid receptor (Homo sapiens) (UniProt P35372); conditions: Compound concentration 10.0 uM
[18] = target: Tyrosine-protein kinase Fgr (Homo sapiens) (UniProt P09769); conditions: Compound concentration 1000.0 nM
[19] = target: Tyrosine-protein kinase ZAP-70 (Homo sapiens) (UniProt P43403); conditions: Compound concentration 1000.0 nM
[20] = target: Ephrin type-A receptor 6 (Homo sapiens) (UniProt Q9UF33); conditions: Compound concentration 1000.0 nM
[21] = target: Epithelial discoidin domain-containing receptor 1 (Homo sapiens) (UniProt Q08345); conditions: Compound concentration 1000.0 nM
[22] = target: Mitogen-activated protein kinase kinase kinase 19 (Homo sapiens) (UniProt Q56UN5); conditions: Compound concentration 1000.0 nM
[23] = target: Cyclin-G-associated kinase (Homo sapiens) (UniProt O14976); conditions: Compound concentration 1000.0 nM
[24] = target: Aurora kinase B (Homo sapiens) (UniProt Q96GD4); conditions: Compound concentration 1000.0 nM
[25] = target: Tyrosine-protein kinase JAK3 (Homo sapiens) (UniProt P52333); conditions: Compound concentration 1000.0 nM
[26] = tested on: Epidermal growth factor receptor (Homo sapiens), P00533 [G719S]; conditions: Compound concentration 1000.0 nM
[27] = target: Testis-specific serine/threonine-protein kinase 3 (Homo sapiens) (UniProt Q96PN8); conditions: Compound concentration 1000.0 nM
[28] = target: Inhibitor of nuclear factor kappa-B kinase subunit beta (Homo sapiens) (UniProt O14920); conditions: Compound concentration 1000.0 nM
[29] = target: Mitogen-activated protein kinase kinase kinase kinase 5 (Homo sapiens) (UniProt Q9Y4K4); conditions: Compound concentration 1000.0 nM
[30] = target: Calcium/calmodulin-dependent protein kinase kinase 1 (Homo sapiens) (UniProt Q8N5S9); conditions: Compound concentration 1000.0 nM
Rattus norvegicus = organism: Rattus norvegicus; conditions: Compound concentration 10.0 uM
[31] = target: Receptor tyrosine-protein kinase erbB-4 (Homo sapiens) (UniProt Q15303); conditions: Compound concentration 1000.0 nM
[32] = target: Ephrin type-A receptor 3 (Homo sapiens) (UniProt P29320); conditions: Compound concentration 1000.0 nM
[33] = target: Mitogen-activated protein kinase 1 (Homo sapiens) (UniProt P28482); conditions: Compound concentration 1000.0 nM
[34] = tested on: eIF-2-alpha kinase GCN2 (Homo sapiens), Q9P2K8 [S808G]; conditions: Compound concentration 1000.0 nM
[35] = target: Phosphatidylinositol 4,5-bisphosphate 3-kinase catalytic subunit alpha isoform (Homo sapiens) (UniProt P42336); conditions: Compound concentration 1000.0 nM
[36] = target: Receptor-type tyrosine-protein kinase FLT3 (Homo sapiens) (UniProt P36888); conditions: Compound concentration 1000.0 nM
[37] = tested on: Phosphatidylinositol 4,5-bisphosphate 3-kinase catalytic subunit alpha isoform (Homo sapiens), P42336 [E545A]; conditions: Compound concentration 1000.0 nM
[38] = target: Tyrosine-protein kinase Fyn (Homo sapiens) (UniProt P06241); conditions: Compound concentration 1000.0 nM
[39] = target: Cytoplasmic tyrosine-protein kinase BMX (Homo sapiens) (UniProt P51813); conditions: Compound concentration 1000.0 nM
[40] = target: Serine/threonine-protein kinase DCLK2 (Homo sapiens) (UniProt Q8N568); conditions: Compound concentration 1000.0 nM
[41] = tested on: Tyrosine-protein kinase ABL1 (Homo sapiens), P00519 [Y253F]; conditions: Compound concentration 1000.0 nM
[42] = target: Insulin receptor-related protein (Homo sapiens) (UniProt P14616); conditions: Compound concentration 1000.0 nM
[43] = target: Serine/threonine-protein kinase Nek3 (Homo sapiens) (UniProt P51956); conditions: Compound concentration 1000.0 nM
[44] = tested on: Proto-oncogene tyrosine-protein kinase receptor Ret (Homo sapiens), P07949 [V804L]; conditions: Compound concentration 1000.0 nM

Mast/stem cell growth factor receptor Kit (Homo sapiens), sequence (P10721 whole entry): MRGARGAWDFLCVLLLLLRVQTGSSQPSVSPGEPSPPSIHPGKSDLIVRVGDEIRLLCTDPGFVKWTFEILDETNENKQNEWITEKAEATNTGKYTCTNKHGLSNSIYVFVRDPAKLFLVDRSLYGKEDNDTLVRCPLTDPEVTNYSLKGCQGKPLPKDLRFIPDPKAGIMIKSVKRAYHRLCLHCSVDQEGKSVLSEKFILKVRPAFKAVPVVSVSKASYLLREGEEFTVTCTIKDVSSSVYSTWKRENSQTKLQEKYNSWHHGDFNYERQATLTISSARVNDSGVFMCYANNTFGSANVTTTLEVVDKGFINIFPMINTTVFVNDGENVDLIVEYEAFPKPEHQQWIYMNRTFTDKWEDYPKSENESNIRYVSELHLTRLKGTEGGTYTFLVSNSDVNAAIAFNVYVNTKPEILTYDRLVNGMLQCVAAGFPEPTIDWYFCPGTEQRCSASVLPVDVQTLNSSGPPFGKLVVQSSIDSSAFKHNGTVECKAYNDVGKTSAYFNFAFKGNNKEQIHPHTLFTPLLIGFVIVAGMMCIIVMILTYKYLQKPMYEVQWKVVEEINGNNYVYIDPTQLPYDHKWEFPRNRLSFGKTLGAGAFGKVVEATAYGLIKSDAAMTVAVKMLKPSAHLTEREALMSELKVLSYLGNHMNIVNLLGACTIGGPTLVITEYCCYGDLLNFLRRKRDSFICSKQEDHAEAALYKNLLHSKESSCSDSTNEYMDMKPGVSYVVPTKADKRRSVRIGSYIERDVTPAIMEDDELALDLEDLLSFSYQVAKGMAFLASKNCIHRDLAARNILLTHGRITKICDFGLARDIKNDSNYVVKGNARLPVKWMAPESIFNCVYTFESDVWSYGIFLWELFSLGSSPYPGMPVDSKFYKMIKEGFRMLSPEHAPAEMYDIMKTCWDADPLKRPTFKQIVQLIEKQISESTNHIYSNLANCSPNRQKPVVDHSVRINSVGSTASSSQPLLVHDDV
Mitogen-activated protein kinase kinase kinase 19 (Homo sapiens), sequence (Q56UN5 whole entry): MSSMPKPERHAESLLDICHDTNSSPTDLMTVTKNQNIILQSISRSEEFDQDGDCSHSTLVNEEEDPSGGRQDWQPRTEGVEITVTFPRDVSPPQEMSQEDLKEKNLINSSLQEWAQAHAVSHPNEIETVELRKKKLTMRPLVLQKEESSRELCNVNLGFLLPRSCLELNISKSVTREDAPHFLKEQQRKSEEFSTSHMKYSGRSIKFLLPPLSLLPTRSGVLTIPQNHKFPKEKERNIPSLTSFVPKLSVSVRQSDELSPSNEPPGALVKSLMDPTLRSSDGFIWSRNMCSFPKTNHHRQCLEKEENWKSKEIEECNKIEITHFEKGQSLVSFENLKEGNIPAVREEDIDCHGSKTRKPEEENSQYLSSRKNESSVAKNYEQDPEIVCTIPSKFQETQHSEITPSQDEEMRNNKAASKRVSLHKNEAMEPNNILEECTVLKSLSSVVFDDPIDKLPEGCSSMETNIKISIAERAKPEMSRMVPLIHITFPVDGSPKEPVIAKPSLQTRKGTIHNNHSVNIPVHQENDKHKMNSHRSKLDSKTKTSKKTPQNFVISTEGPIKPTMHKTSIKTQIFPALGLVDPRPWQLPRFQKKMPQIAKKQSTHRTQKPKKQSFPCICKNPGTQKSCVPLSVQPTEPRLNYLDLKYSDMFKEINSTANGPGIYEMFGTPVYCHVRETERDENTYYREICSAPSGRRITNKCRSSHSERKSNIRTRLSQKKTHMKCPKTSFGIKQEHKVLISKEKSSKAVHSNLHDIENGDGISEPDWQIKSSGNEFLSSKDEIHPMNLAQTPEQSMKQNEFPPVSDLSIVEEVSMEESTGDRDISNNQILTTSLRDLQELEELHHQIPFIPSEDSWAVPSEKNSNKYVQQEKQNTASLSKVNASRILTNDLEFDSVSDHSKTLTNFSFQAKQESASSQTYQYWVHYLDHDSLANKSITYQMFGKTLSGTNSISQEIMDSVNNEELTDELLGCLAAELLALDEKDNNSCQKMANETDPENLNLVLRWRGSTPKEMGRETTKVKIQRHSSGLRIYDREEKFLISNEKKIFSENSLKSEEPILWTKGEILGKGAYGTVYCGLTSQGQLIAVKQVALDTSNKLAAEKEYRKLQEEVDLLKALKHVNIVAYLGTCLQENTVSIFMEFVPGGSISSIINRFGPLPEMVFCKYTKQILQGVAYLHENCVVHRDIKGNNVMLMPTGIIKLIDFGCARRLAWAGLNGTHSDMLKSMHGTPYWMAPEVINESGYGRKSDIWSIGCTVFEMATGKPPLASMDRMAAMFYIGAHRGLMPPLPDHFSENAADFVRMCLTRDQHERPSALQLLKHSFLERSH
Calcium/calmodulin-dependent protein kinase kinase 1 (Homo sapiens), sequence (Q8N5S9 whole entry, looked up): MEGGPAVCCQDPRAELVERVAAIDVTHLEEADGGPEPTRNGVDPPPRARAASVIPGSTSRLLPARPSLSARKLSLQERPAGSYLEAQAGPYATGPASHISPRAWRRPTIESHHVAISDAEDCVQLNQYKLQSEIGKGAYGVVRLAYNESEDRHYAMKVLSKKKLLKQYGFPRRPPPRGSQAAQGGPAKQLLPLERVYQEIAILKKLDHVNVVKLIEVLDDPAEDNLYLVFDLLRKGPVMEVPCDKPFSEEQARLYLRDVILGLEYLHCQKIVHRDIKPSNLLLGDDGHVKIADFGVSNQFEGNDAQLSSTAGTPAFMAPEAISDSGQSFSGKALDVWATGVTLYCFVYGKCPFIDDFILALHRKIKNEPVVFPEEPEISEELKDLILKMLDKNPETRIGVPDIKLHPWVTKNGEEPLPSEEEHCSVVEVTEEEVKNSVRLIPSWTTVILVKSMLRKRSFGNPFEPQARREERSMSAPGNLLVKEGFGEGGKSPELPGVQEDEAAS
Receptor-type tyrosine-protein kinase FLT3 (Homo sapiens), sequence (P36888 whole entry, canonical isoform): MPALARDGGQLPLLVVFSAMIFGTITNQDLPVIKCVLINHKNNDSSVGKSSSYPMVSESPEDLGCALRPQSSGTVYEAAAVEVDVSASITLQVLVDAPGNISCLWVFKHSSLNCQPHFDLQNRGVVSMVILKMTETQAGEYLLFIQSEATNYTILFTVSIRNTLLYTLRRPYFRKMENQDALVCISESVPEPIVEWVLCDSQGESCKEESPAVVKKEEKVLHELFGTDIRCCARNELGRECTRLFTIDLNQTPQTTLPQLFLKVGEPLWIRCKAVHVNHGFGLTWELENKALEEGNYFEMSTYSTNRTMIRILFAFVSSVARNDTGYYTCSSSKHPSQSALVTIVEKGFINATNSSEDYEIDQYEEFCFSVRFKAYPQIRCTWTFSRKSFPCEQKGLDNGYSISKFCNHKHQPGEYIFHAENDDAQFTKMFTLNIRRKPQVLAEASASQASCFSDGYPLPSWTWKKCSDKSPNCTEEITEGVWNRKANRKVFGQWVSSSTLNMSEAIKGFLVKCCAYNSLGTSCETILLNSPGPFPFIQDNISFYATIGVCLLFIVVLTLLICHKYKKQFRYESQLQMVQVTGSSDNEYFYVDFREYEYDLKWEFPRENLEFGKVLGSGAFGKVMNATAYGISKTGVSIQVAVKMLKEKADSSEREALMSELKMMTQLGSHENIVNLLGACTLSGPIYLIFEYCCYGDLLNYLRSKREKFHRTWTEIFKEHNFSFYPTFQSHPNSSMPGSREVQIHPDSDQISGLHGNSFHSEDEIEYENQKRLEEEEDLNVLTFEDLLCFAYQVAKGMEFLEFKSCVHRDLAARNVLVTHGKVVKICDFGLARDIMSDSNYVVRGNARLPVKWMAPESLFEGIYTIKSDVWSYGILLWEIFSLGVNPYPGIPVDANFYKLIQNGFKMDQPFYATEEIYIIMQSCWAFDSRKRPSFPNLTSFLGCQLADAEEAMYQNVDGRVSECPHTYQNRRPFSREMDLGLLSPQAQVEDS
Tyrosine-protein kinase JAK3 (Homo sapiens), sequence (P52333 whole entry): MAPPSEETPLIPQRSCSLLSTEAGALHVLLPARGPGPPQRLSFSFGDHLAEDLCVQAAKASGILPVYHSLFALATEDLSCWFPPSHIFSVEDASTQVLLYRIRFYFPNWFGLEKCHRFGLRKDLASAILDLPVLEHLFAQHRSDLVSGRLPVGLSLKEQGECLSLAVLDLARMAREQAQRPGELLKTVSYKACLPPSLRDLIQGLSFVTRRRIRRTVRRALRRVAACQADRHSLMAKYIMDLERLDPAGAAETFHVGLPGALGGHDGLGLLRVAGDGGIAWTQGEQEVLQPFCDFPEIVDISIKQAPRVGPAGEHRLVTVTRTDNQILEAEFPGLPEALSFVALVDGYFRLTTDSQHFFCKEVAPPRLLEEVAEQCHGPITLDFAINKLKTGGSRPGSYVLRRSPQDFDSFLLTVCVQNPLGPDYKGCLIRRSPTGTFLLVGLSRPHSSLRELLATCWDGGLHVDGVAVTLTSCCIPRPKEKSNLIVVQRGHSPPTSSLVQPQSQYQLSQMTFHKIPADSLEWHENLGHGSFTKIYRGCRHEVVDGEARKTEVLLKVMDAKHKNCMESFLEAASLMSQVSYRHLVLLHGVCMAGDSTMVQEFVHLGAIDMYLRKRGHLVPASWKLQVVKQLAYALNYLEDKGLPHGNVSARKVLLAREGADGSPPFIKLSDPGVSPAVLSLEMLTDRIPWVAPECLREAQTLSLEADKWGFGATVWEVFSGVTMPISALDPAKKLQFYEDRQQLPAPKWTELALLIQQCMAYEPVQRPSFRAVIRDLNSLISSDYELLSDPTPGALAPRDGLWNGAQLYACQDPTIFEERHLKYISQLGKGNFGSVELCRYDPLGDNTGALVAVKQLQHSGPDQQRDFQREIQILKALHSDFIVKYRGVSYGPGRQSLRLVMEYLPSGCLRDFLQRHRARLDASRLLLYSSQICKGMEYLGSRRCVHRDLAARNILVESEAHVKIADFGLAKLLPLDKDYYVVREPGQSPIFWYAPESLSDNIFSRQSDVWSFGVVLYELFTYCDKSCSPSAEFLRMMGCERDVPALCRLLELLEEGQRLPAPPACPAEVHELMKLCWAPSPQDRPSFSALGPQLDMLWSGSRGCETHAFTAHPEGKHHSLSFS

N#CC1(c2ccccn2)CCN(Cc2cc(C(=O)N3CCCC3)c(=O)n3ccccc23)CC1
inactive: residual activity [1] 89% | residual activity [2] 95% | residual activity [3] 91% | residual activity [4] 95% | residual activity [5] 58% | residual activity [6] 100% | residual activity [7] 91% | residual activity [8] 91% | residual activity [9] 84% | residual activity [10] 100% | residual activity [11] 83% | residual activity [12] 79% | residual activity [13] 100% | residual activity [14] 82% | residual activity [15] 100% | residual activity [16] 81% | inhibition [17] 35% | residual activity [18] 100% | residual activity [19] 100% | residual activity [20] 100% | residual activity [21] 85% | residual activity [22] 100% | residual activity [23] 100% | residual activity [24] 92% | residual activity [25] 100% | residual activity [26] 100% | residual activity [27] 100% | residual activity [28] 99% | residual activity [29] 75% | residual activity [30] 100% | inhibition (Rattus norvegicus) 46.5% | residual activity [31] 85% | residual activity [32] 100% | residual activity [33] 98% | residual activity [34] 78% | residual activity [35] 80% | residual activity [36] 98% | residual activity [37] 78% | residual activity [38] 83% | residual activity [39] 84% | residual activity [40] 100% | residual activity [41] 92% | residual activity [42] 93% | residual activity [43] 83% | residual activity [44] 92%

N#CC1(c2ccccn2)CCN(Cc2cc(C(=O)O)c(=O)n3ccccc23)CC1 [MSD-M1PAM]
inactive: residual activity [1] 92% | residual activity [2] 100% | residual activity [3] 100% | residual activity [4] 100% | residual activity [5] 90% | residual activity [6] 87% | residual activity [7] 100% | residual activity [8] 100% | residual activity [9] 100% | residual activity [10] 100% | residual activity [11] 85% | residual activity [12] 100% | residual activity [13] 100% | residual activity [14] 74% | residual activity [15] 100% | residual activity [16] 80% | inhibition [17] 18.5% | residual activity [18] 94% | residual activity [19] 100% | residual activity [20] 86% | residual activity [21] 100% | residual activity [22] 77% | residual activity [23] 100% | residual activity [24] 76% | residual activity [25] 95% | residual activity [26] 90% | residual activity [27] 100% | residual activity [28] 100% | residual activity [29] 87% | residual activity [30] 100% | inhibition (Rattus norvegicus) 7.88% | residual activity [31] 72% | residual activity [32] 75% | residual activity [33] 100% | residual activity [34] 100% | residual activity [35] 100% | residual activity [36] 80% | residual activity [37] 100% | residual activity [38] 99% | residual activity [39] 88% | residual activity [40] 100% | residual activity [41] 72% | residual activity [42] 97% | residual activity [43] 66% | residual activity [44] 100%
